Legend:
ERK phosphorylation = test: Analysis of ERK phosphorylation (Alphascreen SureFire Phospho-ERK 1/2); format: cell-based, human and mouse; details: cells treated for 1 h; human melanoma cells, human and mouse colon cancer cells; read-out: Minimum concentration (nM) required for ≧80% inhibition of pERK
Procedure: This assay was carried out with human melanoma cells, human and mouse colon cancer cells. Cells were treated for 1 h with various concentrations of test compounds. ERK phosphorylation analysis was performed using the Alphascreen SureFire Phospho-ERK 1/2 Kit (Perkin Elmer), by following the manufacturer's instructions. % inhibition of ERK phosphorylation was determined as: 100−{(RFU test−RFU lysis buffer control)/(RFU vehicle treated control−RFU lysis buffer control)}×100. Percentage inhibition at concentrations of 0.01 nM, 0.03 nM, 0.1-0.9 nM, 1 nM to 3 nM, 4-100 nM, and >100 nM, for the stated examples is setworth here. The percentage inhibition at the above depicted concentrations for the compounds stated are given in the following groups.

[1] = tested on: MEK phosphorylation (S218 and S222); test: Analysis of B-Raf-mediated MEK phosphorylation (Alphascreen SureFire Phospho-MEK); format: cell-based, human; details: read-out: % Inhibition of MEK phosphorylation, human melanoma cells, 1 h, read-out: % Inhibition of MBK phosphorylation; for inhibition at 0.001 µM: 1 nM; for inhibition at 0.01 µM: 10 nM; for inhibition at 0.1 µM: 100 nM
Procedure: This assay was carried out with human melanoma cells. Cells were treated for 1 h with various concentrations of test compounds. MEK phosphorylation (S218 and S222) analysis was performed using the Alphascreen SureFire Phospho-MEK Kit (Perkin Elmer), by following the manufacturer's instructions. % inhibition of […] phosphorylation was determined as: 100−{(RFU test−RFU lysis buffer control)/(RFU vehicle treated control−RFU lysis buffer control)}×100.

Cc1c(=O)n(C)c(Nc2ccc(I)cc2F)c2c(=O)[nH]c(=O)n(-c3cccc(C(=O)NC4CC4)c3)c12 [Compound 2, N-cyclopropyl-3-(5-((2-fluoro-4-iodophenyl)amino)-6,8-dimethyl-2,4,7-trioxo-3,4,6,7-tetrahydropyrido[4,3-d]pyrimidin-1(2H)-yl)benzamide]
IC80 (ERK phosphorylation): 0.01 nM
inhibition at 0.001 µM [1]: 72.2%
inhibition at 0.01 µM [1]: 93.4%
inhibition at 0.1 µM [1]: 96.4%

CNC(=O)COc1cccc(-n2c(=O)[nH]c(=O)c3c(Nc4ccc(I)cc4F)n(C)c(=O)c(C)c32)c1 [Compound 5, 2-(3-(5-((2-fluoro-4-iodophenyl)amino)-6,8-dimethyl-2,4,7-trioxo-3,4,6,7-tetrahydropyrido[4,3-d]pyrimidin-1(2H)-yl)phenoxy)-N-methylacetamide]
IC80 (ERK phosphorylation): 0.1 to 0.9 nM
inhibition at 0.001 µM [1]: 93.9%
inhibition at 0.01 µM [1]: 97.4%
inhibition at 0.1 µM [1]: 97.4%

Cc1c(=O)n(C)c(Nc2ccc(I)cc2F)c2c(=O)[nH]c(=O)n(-c3cccc(OCC(N)=O)c3)c12 [Compound 16, 2-(3-(5-((2-fluoro-4-iodophenyl)amino)-6,8-dimethyl-2,4,7-trioxo-3,4,6,7-tetrahydropyrido[4,3-d]pyrimidin-1(2H)-yl)phenoxy)acetamide]
IC80 (ERK phosphorylation): 1 to 3 nM
inhibition at 0.001 µM [1]: 89.2%
inhibition at 0.01 µM [1]: 93.3%
inhibition at 0.1 µM [1]: 94.7%

Cc1c(=O)n(C)c(Nc2ccc(I)cc2F)c2c(=O)n(C3CC3)c(=O)n(-c3cccc(CC(=O)N(C)C)c3)c12 [Compound 29, 2-(3-(3-cyclopropyl-5-((2-fluoro-4-iodophenyl)amino)-6,8-dimethyl-2,4,7-trioxo-3,4,6,7-tetrahydropyrido[4,3-d]pyrimidin-1(2H)-yl)phenyl)-N,N-dimethylacetamide]
IC80 (ERK phosphorylation): 0.1 to 0.9 nM
inhibition at 0.001 µM [1]: 52.9%
inhibition at 0.01 µM [1]: 72.9%
inhibition at 0.1 µM [1]: 76.4%

Cc1c(=O)n(C)c(Nc2ccc(I)cc2F)c2c(=O)n(C)c(=O)n(-c3cccc(CC(=O)NC4CC4)c3)c12 [Compound 58, N-cyclopropyl-2-(3-(5-((2-fluoro-4-iodophenyl)amino)-3,6,8-trimethyl-2,4,7-trioxo-3,4,6,7-tetrahydropyrido[4,3-d]pyrimidin-1(2H)-yl)phenyl)acetamide]
IC80 (ERK phosphorylation): 1 to 3 nM

CCn1c(=O)c2c(Nc3ccc(I)cc3F)n(C)c(=O)c(C)c2n(-c2cccc(CC(=O)NC3CC3)c2)c1=O [Compound 59, N-cyclopropyl-2-(3-(3-ethyl-5-((2-fluoro-4-iodophenyl)amino)-6,8-dimethyl-2,4,7-trioxo-3,4,6,7-tetrahydropyrido[4,3-d]pyrimidin-1(2H)-yl)phenyl)acetamide]
IC80 (ERK phosphorylation): 1 to 3 nM

CNC(=O)COc1cccc(-n2c(=O)n(C)c(=O)c3c(Nc4ccc(I)cc4F)n(C)c(=O)c(C)c32)c1 [Compound 60, 2-(3-(5-((2-fluoro-4-iodophenyl)amino)-3,6,8-trimethyl-2,4,7-trioxo-3,4,6,7-tetrahydropyrido[4,3-d]pyrimidin-1(2H)-yl)phenoxy)-N-methylacetamide]
IC80 (ERK phosphorylation): 0.1 to 0.9 nM

CCn1c(=O)c2c(Nc3ccc(I)cc3F)n(C)c(=O)c(C)c2n(-c2cccc(CCC(N)=O)c2)c1=O [Compound 61, 3-(3-(3-ethyl-5-((2-fluoro-4-iodophenyl)amino)-6,8-dimethyl-2,4,7-trioxo-3,4,6,7-tetrahydropyrido[4,3-d]pyrimidin-1(2H)-yl)phenyl)propanamide]
IC80 (ERK phosphorylation): 1 to 3 nM

CCn1c(=O)c2c(Nc3ccc(I)cc3F)n(C)c(=O)c(C)c2n(-c2cccc(C(=O)NC3CC3)c2)c1=O [Compound 62, N-cyclopropyl-3-(3-ethyl-5-((2-fluoro-4-iodophenyl)amino)-6,8-dimethyl-2,4,7-trioxo-3,4,6,7-tetrahydropyrido[4,3-d]pyrimidin-1(2H)-yl)benzamide]
IC80 (ERK phosphorylation): 4 to 100 nM

Cc1c(=O)n(C)c(Nc2ccc(I)cc2F)c2c(=O)n(C)c(=O)n(-c3cccc(C(=O)N4CCOCC4)c3)c12 [Compound 63, 5-((2-fluoro-4-iodophenyl)amino)-3,6,8-trimethyl-1-(3-(morpholine-4-carbonyl)phenyl)pyrido[4,3-d]pyrimidine-2,4,7(1H,3H,6H)-trione]
IC80 (ERK phosphorylation): 1 to 3 nM

Cc1c(=O)n(C)c(Nc2ccc(I)cc2F)c2c(=O)n(C)c(=O)n(-c3cccc(C(=O)N4CCS(=O)(=O)CC4)c3)c12 [Compound 65, 1-(3-(1,1-dioxidothiomorpholine-4-carbonyl)phenyl)-5-((2-fluoro-4-iodophenyl)amino)-3,6,8-trimethylpyrido[4,3-d]pyrimidine-2,4,7(1H,3H,6H)-trione]
IC80 (ERK phosphorylation): 0.1 to 0.9 nM

CCn1c(=O)c2c(Nc3ccc(I)cc3F)n(C)c(=O)c(C)c2n(-c2cccc(C(=O)N3CCS(=O)(=O)CC3)c2)c1=O [Compound 66, 1-(3-(1,1-dioxidothiomorpholine-4-carbonyl)phenyl)-3-ethyl-5-((2-fluoro-4-iodophenyl)amino)-6,8-dimethylpyrido[4,3-d]pyrimidine-2,4,7(1H,3H,6H)-trione]
IC80 (ERK phosphorylation): 0.01 nM

CCn1c(=O)c2c(Nc3ccc(I)cc3F)n(C)c(=O)c(C)c2n(-c2cccc(CC(=O)N(C)C)c2)c1=O [Compound 67, 2-(3-(3-ethyl-5-((2-fluoro-4-iodophenyl)amino)-6,8-dimethyl-2,4,7-trioxo-3,4,6,7-tetrahydropyrido[4,3-d]pyrimidin-1(2H)-yl)phenyl)-N,N-dimethylacetamide]
IC80 (ERK phosphorylation): 0.1 to 0.9 nM

Cc1c(=O)n(C)c(Nc2ccc(I)cc2F)c2c(=O)n(C)c(=O)n(-c3cccc(CCC(N)=O)c3)c12 [Compound 68, 3-(3-(5-((2-fluoro-4-iodophenyl)amino)-3,6,8-trimethyl-2,4,7-trioxo-3,4,6,7-tetrahydropyrido[4,3-d]pyrimidin-1(2H)-yl)phenyl)propanamide]
IC80 (ERK phosphorylation): 1 to 3 nM

Cc1c(=O)n(C)c(Nc2ccc(I)cc2F)c2c(=O)n(C(C)C)c(=O)n(-c3cccc(C(=O)NC4CC4)c3)c12 [Compound 69, N-cyclopropyl-3-(5-((2-fluoro-4-iodophenyl)amino)-3-isopropyl-6,8-dimethyl-2,4,7-trioxo-3,4,6,7-tetrahydropyrido[4,3-d]pyrimidin-1(2H)-yl)benzamide]
IC80 (ERK phosphorylation): > 100 nM

Cc1c(=O)n(C)c(Nc2ccc(I)cc2F)c2c(=O)n(C3COC3)c(=O)n(-c3cccc(OCC(N)=O)c3)c12 [Compound 71, 2-(3-(5-((2-fluoro-4-iodophenyl)amino)-6,8-dimethyl-3-(oxetan-3-yl)-2,4,7-trioxo-3,4,6,7-tetrahydropyrido[4,3-d]pyrimidin-1(2H)-yl)phenoxy)acetamide]
IC80 (ERK phosphorylation): 4 to 100 nM

Cc1c(=O)n(C)c(Nc2ccc(I)cc2F)c2c(=O)n(C(F)F)c(=O)n(-c3cccc(C(=O)NC4CC4)c3)c12 [Compound 72, N-cyclopropyl-3-(3-(difluoromethyl)-5-((2-fluoro-4-iodophenyl)amino)-6,8-dimethyl-2,4,7-trioxo-3,4,6,7-tetrahydropyrido[4,3-d]pyrimidin-1(2H)-yl)benzamide]
IC80 (ERK phosphorylation): 4 to 100 nM

Cc1c(=O)n(C)c(Nc2ccc(I)cc2F)c2c(=O)n(CC(O)CO)c(=O)n(-c3cccc(C(=O)NC4CC4)c3)c12 (stereo not shown) [Compound 73, N-cyclopropyl-3-(3-(2,3-dihydroxypropyl)-5-((2-fluoro-4-iodophenyl)amino)-6,8-dimethyl-2,4,7-trioxo-3,4,6,7-tetrahydropyrido[4,3-d]pyrimidin-1 (2H)-yl)benzamide]
IC80 (ERK phosphorylation): 4 to 100 nM

Cc1c(=O)n(C)c(Nc2ccc(I)cc2F)c2c(=O)n(CC(=O)O)c(=O)n(-c3cccc(C(=O)NC4CC4)c3)c12 [Compound 74, 2-(1-(3-(cyclopropylcarbamoyl)phenyl)-5-((2-fluoro-4-iodophenyl)amino)-6,8-dimethyl-2,4,7-trioxo-1,2,6,7-tetrahydropyrido[4,3-d]pyrimidin-3(4H)-yl)acetic acid]
IC80 (ERK phosphorylation): > 100 nM

Cc1c(=O)n(C)c(Nc2ccc(I)cc2F)c2c(=O)n(C)c(=O)n(-c3cccc([C@@H](O)C(N)=O)c3)c12 [Compound 75, (R)-2-(3-(5-((2-fluoro-4-iodophenyl)amino)-3,6,8-trimethyl-2,4,7-trioxo-3,4,6,7-tetrahydropyrido[4,3-d]pyrimidin-1(2H)-yl)phenyl)-2-hydroxyacetamide]
IC80 (ERK phosphorylation): 1 to 3 nM

Cc1c(=O)n(C)c(Nc2ccc(I)cc2F)c2c(=O)n(C)c(=O)n(-c3cccc([C@H](O)C(N)=O)c3)c12 [Compound 76, (S)-2-(3-(5-((2-fluoro-4-iodophenyl)amino)-3,6,8-trimethyl-2,4,7-trioxo-3,4,6,7-tetrahydropyrido[4,3-d]pyrimidin-1(2H)-yl)phenyl)-2-hydroxyacetamide]
IC80 (ERK phosphorylation): 4 to 100 nM

Cc1c(=O)n(C)c(Nc2ccc(I)cc2F)c2c(=O)n(C)c(=O)n(-c3cccc(C4(C(N)=O)CC4)c3)c12 [Compound 79, 1-(3-(5-((2-fluoro-4-iodophenyl)amino)-3,6,8-trimethyl-2,4,7-trioxo-3,4,6,7-tetrahydropyrido[4,3-d]pyrimidin-1(2H)-yl)phenyl)cyclopropanecarboxamide]
IC80 (ERK phosphorylation): 4 to 100 nM
